Source: US11129816B2, “Ring-fused thiazolino 2-pyridones in combination with a drug against tuberculosis” (QURETECH BIO AB, priority 2017, dated 2021)

Legend:
[1] = test system: Mycobacterium tuberculosis Erdman; test: Treatment of Mycobacterium tuberculosis Erdman liquid culture with Q203 in the absence or presence of Example 1 (CFU count and ODλ600); type: cell-based; details: Sauton's media; Example 1 25 μM or Q203 0.4 μM alone; day 15; compared to DMSO control
[2] = test system: Mtb; test: Microplate Alamar Blue Assay (MABA); type: cell-based; details: Mycobacterium tuberculosis
Method: The IC50 value was measured for the compounds 55-65. The measurement was made in accordance with the Microplate Alamar Blue Assay (MABA) as described by Franzblau, S. G. et al in Tuberculosis (Edinb). 92, 453-88 (2012: The MABA utilizes the dye resazurin, which is dark blue and nonfluorescent in its oxidized form but becomes pink and fluorescent when reduced to resorufin as a result of cellular metabolism. The MABA is commonly used to evaluate the efficacy of compounds in restraining Mtb growth, but also serves as an assay for aerobic respiration. The degree of the color change was monitored and quantified, and performing this assay with a range of compound concentrations allowed for calculating IC50 values for compounds. The IC50 value is defined as the concentration of the compound that inhibits the MABA color change by 50%.

| Compound | ODλ600 value (FIG. 3b) [1] | IC50 [2] |
| --- | --- | --- |
| O=C(O)[C@@H]1CSc2c(C3CC3)c(Cc3cccc4ccccc34)cc(=O)n21 [Example 1, (3R)-7-Cyclopropyl-6-[(1-naphthyl)methyl]-4-oxo-1-thia-3a-aza-3-indancarboxylic acid] | decrease the ODλ600 value considerably | – |
| O=C(O)C1CSc2c(C3CC3)c(Cc3cccc4ccccc34)cc(=O)n21 (stereo not shown) [Example 65, 1H-imidazol-1-ium 8-cyclopropyl-7-(naphthalen-1-ylmethyl)-5-oxo-3,5-dihydro-2H-thiazolo[3,2-a]pyridine-3-carboxylate] | – | 8.47 µM |
| O=C(O)C1CSc2c(-c3cc(-c4cccc5ccccc45)no3)c(Cc3cccc4ccccc34)cc(=O)n21 (stereo not shown) [Example 64, 1H-imidazol-1-ium 8-(3-(naphthalen-1-yl)isoxazol-5-yl)-7-(naphthalen-1-ylmethyl)-5-oxo-3,5-dihydro-2H-thiazolo[3,2-a]pyridine-3-carboxylate] | – | 14.4 µM |
| CCc1nc2ccc(Cl)cn2c1C(=O)NCc1ccc(N2CCC(c3ccc(OC(F)(F)F)cc3)CC2)cc1 [Example Q203, 6-chloro-2-ethyl-N-[(4-{4-[4-(trifluoromethoxy)phenyl]piperidin-1-yl}phenyl)methyl]imidazo[1,2-a]pyridine-3-carboxamide, reference compound] | decrease the ODλ600 value considerably | – |
| O=C(O)C1CSc2c(C3CC3)c(-c3cc(-c4cccs4)no3)cc(=O)n21 (stereo not shown) [Example 58, 1H-imidazol-1-ium 8-cyclopropyl-5-oxo-7-(3-(thiophen-2-yl)isoxazol-5-yl)-3,5-dihydro-2H-thiazolo[3,2-a]pyridine-3-carboxylate] | – | 28.9 µM |
| C#Cc1c(Cc2cccc3ccccc23)cc(=O)n2c1SCC2C(=O)O (stereo not shown) [Example 62, 1H-imidazol-1-ium 8-ethynyl-7-(naphthalen-1-ylmethyl)-5-oxo-3,5-dihydro-2H-thiazolo[3,2-a]pyridine-3-carboxylate] | – | 53.5 µM |
| O=C(O)C1CSc2c(C3CC(c4ccccc4)=NO3)c(Cc3cccc4ccccc34)cc(=O)n21 (stereo not shown) [Example 61, 1H-imidazol-1-ium 7-(naphthalen-1-ylmethyl)-5-oxo-8-(3-phenyl-4,5-dihydroisoxazol-5-yl)-3,5-dihydro-2H-thiazolo[3,2-a]pyridine-3-carboxylate] | – | 82.7 µM |
| O=C(O)C1CSc2c(C3CC3)c(-c3nc4ccccc4o3)cc(=O)n21 (stereo not shown) [Example 55, 1H-imidazol-1-ium 7-(benzo[d]oxazol-2-yl)-8-cyclopropyl-5-oxo-3,5-dihydro-2H-thiazolo[3,2-a]pyridine-3-carboxylate] | – | 39.1 µM |
| O=C(O)C1CSc2c(-c3cc(-c4ccccc4)no3)c(Cc3cccc4ccccc34)cc(=O)n21 (stereo not shown) [Example 63, 1H-imidazol-1-ium 7-(naphthalen-1-ylmethyl)-5-oxo-8-(3-phenylisoxazol-5-yl)-3,5-dihydro-2H-thiazolo[3,2-a]pyridine-3-carboxylate] | – | 12.7 µM |
| O=C(O)C1CSc2c(C3CC3)c(-c3cc(-c4ccccc4)no3)cc(=O)n21 (stereo not shown) [Example 59, 1H-imidazol-1-ium 8-cyclopropyl-5-oxo-7-(3-phenylisoxazol-5-yl)-3,5-dihydro-2H-thiazolo[3,2-a]pyridine-3-carboxylate] | – | 15.6 µM |
| O=C(O)C1CSc2c(-c3cc(-c4ccccc4)no3)c(Cc3cccc4ccccc34)c(Br)c(=O)n21 (stereo not shown) [Example 60, 1H-imidazol-1-ium 6-bromo-7-(naphthalen-1-ylmethyl)-5-oxo-8-(3-phenylisoxazol-5-yl)-3,5-dihydro-2H-thiazolo[3,2-a]pyridine-3-carboxylate] | – | 4.51 µM |
| O=C(O)C1CSc2c(C3CC3)c(-c3cc(-c4cccc5ccccc45)no3)cc(=O)n21 (stereo not shown) [Example 56, 1H-imidazol-1-ium 8-cyclopropyl-7-(3-(naphthalen-1-yl)isoxazol-5-yl)-5-oxo-3,5-dihydro-2H-thiazolo[3,2-a]pyridine-3-carboxylate] | – | 2.53 µM |
| O=C(O)C1CSc2c(C3CC3)c(-c3cc(-c4cccc(C(F)(F)F)c4)no3)cc(=O)n21 (stereo not shown) [Example 57, 1H-imidazol-1-ium 8-cyclopropyl-5-oxo-7-(3-(3-(trifluoromethyl)phenyl)isoxazol-5-yl)-3,5-dihydro-2H-thiazolo[3,2-a]pyridine-3-carboxylate] | – | 2.53 µM |
